Results reported in patent EP0620225B1, “Cephalosporin derivatives” (Basilea Pharmaceutica AG, priority 1993, dated 1994).
Converted amounts (≈) assume the structure as drawn. One block for each compound: values may come before it.

Columns and labels:
Acinetobacter sp.51-156 = experiment: Antibacterial spectrum (MIC), agar dilution; assay type: cell-based; settings: SP.51156, read-out: MIC
Experimental: (§1) In vitro activity was determined by minimum inhibitory concentration in a microorganism spectum by the agar dilution method in Mueller Hinton agar.

C.freundii 43 = experiment: Antibacterial spectrum (MIC), agar dilution; assay type: cell-based; settings: Citrobacter freundii, read-out: MIC
Experimental: as §1

C.freundii 902 = experiment: Antibacterial spectrum (MIC), agar dilution; assay type: cell-based; settings: Citrobacter freundii, read-out: MIC
Experimental: as §1

E.cloacae 908R = experiment: Antibacterial spectrum (MIC), agar dilution; assay type: cell-based; settings: Enterobacter cloacae, read-out: MIC
Experimental: as §1

E.cloacae 908SSi = experiment: Antibacterial spectrum (MIC), agar dilution; assay type: cell-based; settings: Enterobacter cloacae, read-out: MIC
Experimental: as §1

E.coli 25922 = experiment: Antibacterial spectrum (MIC), agar dilution; assay type: cell-based; settings: Escherichia coli, read-out: MIC
Experimental: as §1

E.faecalis 6 = experiment: Antibacterial spectrum (MIC), agar dilution; assay type: cell-based; settings: Enterococcus faecalis, read-out: MIC
Experimental: as §1

H.influenzae 1 = experiment: Antibacterial spectrum (MIC), agar dilution; assay type: cell-based; settings: Haemophilus influenzae, read-out: MIC
Experimental: as §1

K.pneumoniae 418 = experiment: Antibacterial spectrum (MIC), agar dilution; assay type: cell-based; settings: Klebsiella pneumoniae, read-out: MIC
Experimental: as §1

M.catarrhalis RA21 = experiment: Antibacterial spectrum (MIC), agar dilution; assay type: cell-based; settings: Moraxella catarrhalis, read-out: MIC
Experimental: as §1

M.morganii 6H-137 = experiment: Antibacterial spectrum (MIC), agar dilution; assay type: cell-based; settings: Morganella morganii, 6H137, read-out: MIC
Experimental: as §1

N.meningitidis 69480 = experiment: Antibacterial spectrum (MIC), agar dilution; assay type: cell-based; settings: Neisseria meningitidis, read-out: MIC
Experimental: as §1

P.aeruginosa 27853 = experiment: Antibacterial spectrum (MIC), agar dilution; assay type: cell-based; settings: Pseudomonas aeruginosa, read-out: MIC
Experimental: as §1

P.mirabilis 2117 = experiment: Antibacterial spectrum (MIC), agar dilution; assay type: cell-based; settings: Proteus mirabilis, read-out: MIC
Experimental: as §1

P.vulgaris 1028 = experiment: Antibacterial spectrum (MIC), agar dilution; assay type: cell-based; settings: Proteus vulgaris, read-out: MIC
Experimental: as §1

S.agalactiae QK44 = experiment: Antibacterial spectrum (MIC), agar dilution; assay type: cell-based; settings: Streptococcus agalactiae, read-out: MIC
Experimental: as §1

S.aureus 6538 = experiment: Antibacterial spectrum (MIC), agar dilution; assay type: cell-based; settings: Staphylococcus aureus, read-out: MIC
Experimental: as §1

S.aureus 734 MRSA = experiment: Antibacterial spectrum (MIC), agar dilution; assay type: cell-based; settings: Staphylococcus aureus, read-out: MIC
Experimental: as §1

S.marcescens 69438 = experiment: Antibacterial spectrum (MIC), agar dilution; assay type: cell-based; settings: Serratia marcescens, read-out: MIC
Experimental: as §1

S.pneumoniae Q19 = experiment: Antibacterial spectrum (MIC), agar dilution; assay type: cell-based; settings: Streptococcus pneumoniae, read-out: MIC
Experimental: as §1

S.pyogenes B15 = experiment: Antibacterial spectrum (MIC), agar dilution; assay type: cell-based; settings: Streptococcus pyogenes, read-out: MIC
Experimental: as §1

S.viridans group 016 = experiment: Antibacterial spectrum (MIC), agar dilution; assay type: cell-based; settings: Streptococcus viridans, read-out: MIC
Experimental: as §1

X.maltophilia 1AC739 = experiment: Antibacterial spectrum (MIC), agar dilution; assay type: cell-based; settings: Stenotrophomonas maltophilia, read-out: MIC
Experimental: as §1

S.aureus MSSA = experiment: In vitro activity against selected species (MIC50, MIC90, range); assay type: cell-based; settings: Staphylococcus aureus, medium MHB (Mueller Hinton Broth)
S.pneumoniae PEN-R = experiment: as above; assay type: cell-based; settings: Streptococcus pneumoniae; for MIC: MIC range
S.viridans group = experiment: as above; assay type: cell-based; settings: Streptococcus viridans
E.faecalis [1] = experiment: as above; assay type: cell-based; settings: Enterococcus faecalis, medium MHA
Experimental: as §1

S.aureus MRSA = experiment: as above; assay type: cell-based; settings: Staphylococcus aureus, medium MHA (Mueller Hinton Agar) +NaCl
Experimental: as §1

E.faecium = experiment: In vitro activity against selected species (MIC50, range); assay type: cell-based; settings: Enterococcus faecium, medium MHA
Experimental: as §1

M.catarrhalis = experiment: In vitro activity against selected species (MIC50, MIC90, range); assay type: cell-based; settings: Moraxella catarrhalis, medium IsoB
Escherichia coli 25922 = experiment: Efficacy against systemic infections (septicemia) in mice; assay type: in vivo; settings: 96 h, Escherichia coli 25922, po (orally) 1 and 3 h after challenge, survival day 4
Experimental: Septicemia was induced in outbred Swiss albino mice (Jbm MoRo [specific pathogen free]; weight 16 to 20 g, Biomedical Research Laboratories, Füllinsdorf, Switzerland). Mice were infected by intraperitoneal injection of diluted overnight cultures of the test organisms. Bacterial challenge doses were 4-10 times the number of organisms required to kill 50% of untreated animals within 48 h. The test compounds were administered p.o. or s.c. 1 and 3 h after the bacterial challenge. To treat the infection with Pseudomonas aeruginosa BA an additional dose was given 5 h after challenge. Control and treatment groups at each dose were composed of five mice each. The 50% effective dose (ED50, in milligrams per kilogram) was calculated by probit analysis as described by Finney (Finney, D.J. 1978, Statistical method in biological assay, 3rd ed. Charles Griffin & Co., Ltd., London), from the survival rates on day 4 after infection.

E.faecalis [2] = experiment: In vitro activity against selected species (MIC50, MIC90, range); assay type: cell-based; settings: Enterococcus faecalis, medium IsoB
L.monocytogenes BK23 = experiment: Antibacterial spectrum (MIC), agar dilution; assay type: cell-based; settings: Listeria monocytogenes, read-out: MIC
Experimental: as §1

[3] = medium IsoB (Isosensitest Broth)

MIC (Acinetobacter sp.51-156): > 32 µg/mL | MIC (C.freundii 43): 4 µg/mL (≈ 7.68 µM) | MIC (C.freundii 902): 0.5 µg/mL (≈ 0.96 µM) | MIC (E.cloacae 908R): 8 µg/mL (≈ 15.4 µM) | MIC (E.cloacae 908SSi): 2 µg/mL (≈ 3.84 µM) | MIC (E.coli 25922): 0.5 µg/mL (≈ 0.96 µM) | MIC (E.faecalis 6): 2 µg/mL (≈ 3.84 µM) | MIC (H.influenzae 1): 0.25 µg/mL (≈ 0.48 µM) | MIC (K.pneumoniae 418): 1 µg/mL (≈ 1.92 µM) | MIC (M.catarrhalis RA21): 16 µg/mL (≈ 30.7 µM) | MIC (M.morganii 6H-137): 0.25 µg/mL (≈ 0.48 µM) | MIC (N.meningitidis 69480): 0.12 µg/mL (≈ 0.231 µM) | MIC (P.aeruginosa 27853): > 32 µg/mL | MIC (P.mirabilis 2117): 0.12 µg/mL (≈ 0.231 µM) | MIC (P.vulgaris 1028): 0.5 µg/mL (≈ 0.96 µM) | MIC (S.agalactiae QK44): 0.25 µg/mL (≈ 0.48 µM) | MIC (S.aureus 6538): 1 µg/mL (≈ 1.92 µM) | MIC (S.aureus 734 MRSA): 16 µg/mL (≈ 30.7 µM) | MIC (S.marcescens 69438): 1 µg/mL (≈ 1.92 µM) | MIC (S.pneumoniae Q19): 0.12 µg/mL (≈ 0.231 µM) | MIC (S.pyogenes B15): < 0.06 µg/mL | MIC (S.viridans group 016): 1 µg/mL (≈ 1.92 µM) | MIC (X.maltophilia 1AC739): > 32 µg/mL | MIC (S.aureus MSSA; MIC range): 0.5 to 2 µg/mL (≈ 0.96 to 3.84 µM) | MIC50 (S.aureus MSSA): 1 µg/mL (≈ 1.92 µM) | MIC90 (S.aureus MSSA): 2 µg/mL (≈ 3.84 µM) | MIC (S.pneumoniae PEN-R; [3]): 0.12 to 0.5 µg/mL (≈ 0.231 to 0.96 µM) | MIC (S.pneumoniae PEN-R; medium IsoB + 20% serum): 0.1 to 1 µg/mL | MIC50 (S.pneumoniae PEN-R; [3]): 0.25 µg/mL (≈ 0.48 µM) | MIC90 (S.pneumoniae PEN-R; [3]): 0.5 µg/mL (≈ 0.96 µM) | MIC50 (S.pneumoniae PEN-R; medium IsoB + 20% serum): 0.5 µg/mL | MIC50 (S.viridans group): 2 µg/mL (≈ 3.84 µM) | MIC90 (S.viridans group): 4 µg/mL (≈ 7.68 µM) | MIC (S.viridans group; MIC range): 0.12 to 8 µg/mL (≈ 0.231 to 15.4 µM) | MIC (E.faecalis [1]; MIC range): 1 to 8 µg/mL (≈ 1.92 to 15.4 µM) | MIC50 (E.faecalis [1]): 2 µg/mL (≈ 3.84 µM) | MIC90 (E.faecalis [1]): 4 µg/mL (≈ 7.68 µM) | MIC (S.aureus MRSA; MIC range): 16 to 32 µg/mL (≈ 30.7 to 61.5 µM) | MIC50 (S.aureus MRSA): 32 µg/mL (≈ 61.5 µM) | MIC90 (S.aureus MRSA): 32 µg/mL (≈ 61.5 µM) | MIC (E.faecium; MIC range): 2 to 32 µg/mL (≈ 3.84 to 61.5 µM) | MIC50 (E.faecium): 4 µg/mL (≈ 7.68 µM) | MIC (M.catarrhalis; MIC range): 2 to 32 µg/mL (≈ 3.84 to 61.5 µM) | MIC50 (M.catarrhalis): 8 µg/mL (≈ 15.4 µM) | MIC90 (M.catarrhalis): 16 µg/mL (≈ 30.7 µM) | MIC (E.faecalis [2]; MIC range): 0.5 to 4 µg/mL (≈ 0.96 to 7.68 µM) | MIC50 (E.faecalis [2]): 2 µg/mL (≈ 3.84 µM) | MIC90 (E.faecalis [2]): 2 µg/mL (≈ 3.84 µM)
Compound: CC(C)(C)N1CC/C(=C\C2=C(C(=O)O)N3C(=O)[C@@H](NC(=O)/C(=N\O)c4csc(N)n4)[C@H]3SC2)C1=O [J]
ED50 (Escherichia coli 25922): > 2 mg/kg

MIC (Acinetobacter sp.51-156): 16 µg/mL (≈ 31.7 µM) | MIC (C.freundii 43): 4 µg/mL (≈ 7.93 µM) | MIC (C.freundii 902): ≤ 0.06 µg/mL | MIC (E.cloacae 908R): 16 µg/mL (≈ 31.7 µM) | MIC (E.cloacae 908SSi): 0.25 µg/mL (≈ 0.495 µM) | MIC (E.coli 25922): ≤ 0.06 µg/mL | MIC (E.faecalis 6): 2 µg/mL (≈ 3.96 µM) | MIC (H.influenzae 1): 0.5 µg/mL (≈ 0.991 µM) | MIC (K.pneumoniae 418): 0.12 µg/mL (≈ 0.238 µM) | MIC (L.monocytogenes BK23): 4 µg/mL (≈ 7.93 µM) | MIC (M.catarrhalis RA21): 8 µg/mL (≈ 15.9 µM) | MIC (M.morganii 6H-137): ≤ 0.06 µg/mL | MIC (N.meningitidis 69480): ≤ 0.06 µg/mL | MIC (P.aeruginosa 27853): 16 µg/mL (≈ 31.7 µM) | MIC (P.mirabilis 2117): ≤ 0.06 µg/mL | MIC (P.vulgaris 1028): 2 µg/mL (≈ 3.96 µM) | MIC (S.agalactiae QK44): 0.25 µg/mL (≈ 0.495 µM) | MIC (S.aureus 6538): 1 µg/mL (≈ 1.98 µM) | MIC (S.aureus 734 MRSA): 16 µg/mL (≈ 31.7 µM) | MIC (S.marcescens 69438): 1 µg/mL (≈ 1.98 µM) | MIC (S.pneumoniae Q19): ≤ 0.06 µg/mL | MIC (S.pyogenes B15): ≤ 0.06 µg/mL | MIC (S.viridans group 016): 1 µg/mL (≈ 1.98 µM) | MIC (X.maltophilia 1AC739): > 32 µg/mL
Compound: C=CCN1CC/C(=C\C2=C(C(=O)O)N3C(=O)[C@@H](NC(=O)/C(=N\O)c4csc(N)n4)[C@H]3SC2)C1=O [L, [6R-[3(E),6α,7β(Z)]]-3-[[1-Allyl-2-oxo-3-pyrrolidinylidene]methyl]-7-[[(2-amino-4-thiazolyl)(hydroxyimino)acetyl]amino]-8-oxo-5-thia-1-azabicyclo[4.2.0]oct-2-ene-2-carboxylic acid]

MIC (Acinetobacter sp.51-156): 8 µg/mL (≈ 15.9 µM) | MIC (C.freundii 43): 8 µg/mL (≈ 15.9 µM) | MIC (C.freundii 902): 0.25 µg/mL (≈ 0.497 µM) | MIC (E.cloacae 908R): 16 µg/mL (≈ 31.8 µM) | MIC (E.cloacae 908SSi): 1 µg/mL (≈ 1.99 µM) | MIC (E.coli 25922): ≤ 0.06 µg/mL | MIC (E.faecalis 6): 1 µg/mL (≈ 1.99 µM) | MIC (H.influenzae 1): 0.5 µg/mL (≈ 0.993 µM) | MIC (K.pneumoniae 418): 0.12 µg/mL (≈ 0.238 µM) | MIC (L.monocytogenes BK23): 4 µg/mL (≈ 7.94 µM) | MIC (M.catarrhalis RA21): 8 µg/mL (≈ 15.9 µM) | MIC (M.morganii 6H-137): ≤ 0.06 µg/mL | MIC (N.meningitidis 69480): ≤ 0.06 µg/mL | MIC (P.aeruginosa 27853): 8 µg/mL (≈ 15.9 µM) | MIC (P.mirabilis 2117): ≤ 0.06 µg/mL | MIC (P.vulgaris 1028): 8 µg/mL (≈ 15.9 µM) | MIC (S.agalactiae QK44): 0.25 µg/mL (≈ 0.497 µM) | MIC (S.aureus 6538): 1 µg/mL (≈ 1.99 µM) | MIC (S.aureus 734 MRSA): 4 µg/mL (≈ 7.94 µM) | MIC (S.marcescens 69438): 4 µg/mL (≈ 7.94 µM) | MIC (S.pneumoniae Q19): ≤ 0.06 µg/mL | MIC (S.pyogenes B15): ≤ 0.06 µg/mL | MIC (S.viridans group 016): 1 µg/mL (≈ 1.99 µM) | MIC (X.maltophilia 1AC739): > 32 µg/mL
Compound: N#CCN1CC/C(=C\C2=C(C(=O)O)N3C(=O)[C@@H](NC(=O)/C(=N\O)c4csc(N)n4)[C@H]3SC2)C1=O [M, [6R-[3(E),6α,7β(Z)]]-7-[[(2-Amino-4-thiazolyl)(hydroxyimino)acetyl]-amino]-3-[[1-cyanomethyl-2-oxo-3-pyrrolidinylidene]methyl]-8-oxo-5-thia-1-azabicyclo[4.2.0]oct-2-ene-2-carboxylic acid]
